The results in this text go back to ChEMBL document CHEMBL3861945 (Medchemcomm, 2016).

A word on the IC50: it is the concentration at which inhibition is half-maximal.

Each structure is given as a SMILES string.

For data set [1], the system named is Trypanosoma cruzi. Nature of the data set: Trypanocidal activity against bloodstream trypomastigote stage of Trypanosoma cruzi Y after 24 hrs by Neubauer chamber method. The format is functional.
Data set [2] in a line: Cytotoxicity against human PC3 cells assessed as decrease in cell viability after 72 hrs by MTT assay. The format is functional, cell-based. The following applies: PC-3, 72 h. (Formazan colour is commonly taken as a measure of viable cells.)
Data set [3] is described as follows: Cytotoxicity against human HL60 cells assessed as decrease in cell viability after 72 hrs by MTT assay. Format: functional, cell-based. The note with it: HL-60, 72 h.
The nature of data set [4]: Cytotoxicity against human SF295 cells assessed as decrease in cell viability after 72 hrs by MTT assay. The format is functional, cell-based. The following applies: SF-295, 72 h.
Data set [5] can be described thus: Cytotoxicity against human MDA-MB-435 cells assessed as decrease in cell viability after 72 hrs by MTT assay. Format: functional, cell-based. The following applies: MDA-MB-435, 72 h.
Data set [6] is described as follows: Cytotoxicity against human PBMC assessed as decrease in cell viability after 72 hrs by MTT assay. The format is toxicity, cell-based. The following applies: PBMC (peripheral blood mononuclear cells).
A short description of data set [7]: Cytotoxicity against human HCT116 cells assessed as decrease in cell viability after 72 hrs by MTT assay. The format is functional, cell-based. The following applies: HCT-116, 72 h.
The test system of data set [8] is Trypanosoma cruzi. The data set is described as follows: Trypanocidal activity against bloodstream form of Trypanosoma cruzi after 24 hrs. The format is functional.
In the next data set the test system is PC-3. Nature of the data set: Selectivity index, ratio of IC50 for human PBMC to IC50 for human PC3 cells.
Another data set has as its system HL-60. The data set is described as follows: Selectivity index, ratio of IC50 for human PBMC to IC50 for human HL60 cells.
The subject of a further data set is SF-295. Nature of the data set: Selectivity index, ratio of IC50 for human PBMC to IC50 for human SF295 cells.
In another data set the test system is HCT-116. The data set is described as follows: Selectivity index, ratio of IC50 for human PBMC to IC50 for human HCT116 cells.
Data set [9] in a line: Selectivity index, ratio of IC50 for human PBMC to IC50 for human MDA-MB-435 cells.

For the molecule `O=C1C(=O)c2ccccc2C2=C1CC(Cn1nncc1-c1ccccc1)O2` (configuration not stated), the IC50 in the data set on Trypanosoma cruzi [1] was over 1000 µM; in data set [2], 6.91 µM; in data set [3] it was 4.11 µM; in data set [4], 7.78 µM; in data set [5], 6.13 µM; in data set [7], 4.84 µM. In addition, the half-inhibitory concentration (IC50) at 72 h in data set [6] was 5.71 µM.

For the molecule `O=C1C(=O)c2ccccc2C2=C1CC(Cn1cc(C3(O)CCCCC3)nn1)O2` (configuration not stated), the half-inhibitory concentration (IC50) with Trypanosoma cruzi [8] worked out at 89.5 µM; in data set [2], 12.4 µM; in data set [3], 11 µM; in data set [4], 11.1 µM; in data set [5], 10.2 µM; in [7] it was 12.7 µM. Also, the IC50 at 72 h in data set [6] was over 13.2 µM.

`CC1(C)OC2=C(C(=O)c3ccccc3C2=O)C1n1nncc1-c1ccccc1` (configuration not stated): the half-maximal inhibitory concentration (IC50) is over 1000 µM in the data set on Trypanosoma cruzi [1]; 3.07 µM in data set [2]; 2.55 µM in data set [3]; 2.8 µM in [4]; 3.71 µM in data set [5]; 2.5 µM in [7]. Also, in [6], the IC50 at 72 h was 7.57 µM.

Take `O=C1C2=C(OC(Cn3nncc3-c3ccccc3)C2)C(=O)c2ccccc21` (configuration not stated): the 50% inhibitory concentration (IC50) in the data set on Trypanosoma cruzi [1] was over 1000 µM; in data set [2], over 14 µM; in data set [3], 3.02 µM; in [4] it was over 14 µM; in [5], over 14 µM; in data set [7], 3.36 µM. For the same molecule, the IC50 at 72 h in [6] was over 14 µM.

For `CC1(C)OC2=C(C(=O)C(=O)c3ccccc32)C1n1nncc1-c1ccccc1` (configuration not stated), the IC50 stood at 113 µM with Trypanosoma cruzi [1]; 1.34 µM in data set [2]; 1.48 µM in data set [3]; 2.37 µM in [4]; 1.75 µM in data set [5]; 1.37 µM in data set [7]. The IC50 at 72 h in data set [6] amounted to 2.02 µM. In the data set with PC-3, the “Ratio IC50” value was 1.5.

Regarding `CC1(C)CC(n2cc(-c3ccccc3)nn2)C2=C(O1)C(=O)c1ccccc1C2=O` (configuration not stated), the half-inhibitory concentration (IC50) is over 1000 µM in the data set on Trypanosoma cruzi [1]; over 13 µM in data set [2]; 7.94 µM in data set [3]; over 13 µM in [4]; over 13 µM in data set [5]; 9.63 µM in data set [7]. For the same molecule, the 50% inhibitory concentration (IC50) at 72 h in data set [6] is over 13 µM.

For `O=C1C2=C(OC(Cn3nnc(-c4ccccc4)c3I)C2)C(=O)c2ccccc21` (configuration not stated), the half-inhibitory concentration (IC50) in the data set on Trypanosoma cruzi [1] is over 1000 µM; in data set [2], over 10.3 µM; in [3], 5.4 µM; in data set [4] it was over 10.3 µM; in data set [5], over 10.3 µM; in data set [7], 6.04 µM. The IC50 at 72 h in data set [6] is over 10.3 µM.

As to `O=C1C(=O)c2ccccc2C2=C1CC(Cn1nnc(-c3ccccc3)c1I)O2` (configuration not stated), the half-maximal inhibitory concentration (IC50) in the data set with Trypanosoma cruzi [1] is over 1000 µM; in [2], 2.17 µM; in data set [3] it was 2.38 µM; in [4], 3.68 µM; in data set [5], 5.65 µM; in data set [7], 4.16 µM. Also, in data set [6], the IC50 at 72 h is 3.68 µM.

For the molecule `CC1(C)CC(n2nnc(-c3ccccc3)c2I)C2=C(O1)C(=O)c1ccccc1C2=O` (configuration not stated), the IC50 in the data set with Trypanosoma cruzi [1] is over 1000 µM; in [2], over 9.78 µM; in data set [3], over 9.78 µM; in data set [4], over 9.78 µM; in data set [5], over 9.78 µM; in data set [7], over 9.78 µM. Moreover, in data set [6], the half-inhibitory concentration (IC50) at 72 h is over 9.78 µM.

`O=C1C2=C(OC(Cn3cc(-c4ccccc4)nn3)C2)C(=O)c2ccccc21` (configuration not stated): the 50% inhibitory concentration (IC50) is over 1000 µM in the data set with Trypanosoma cruzi [1]; over 14 µM in data set [2]; 7.95 µM in [3]; over 14 µM in [4]; over 14 µM in data set [5]; 8.7 µM in data set [7]. Moreover, the 50% inhibitory concentration (IC50) at 72 h in [6] is over 14 µM.

Consider `O=C1C(=O)c2ccccc2C2=C1CC(Cn1cc(C3CCCCC3)nn1)O2` (configuration not stated), for which the IC50 with Trypanosoma cruzi [8] was 214 µM; in data set [2], 2.55 µM; in data set [3], 2.25 µM; in data set [4], 1.89 µM; in [5], 1.21 µM; in data set [7], 2.17 µM. Also, the IC50 at 72 h in [6] turned out to be 5.17 µM.

In the case of `O=C1C(=O)c2ccccc2C2=C1CC(Cn1cc(C3=CCCCC3)nn1)O2` (configuration not stated), the IC50 in the data set with Trypanosoma cruzi [8] stood at 55.3 µM; in [2], 4.37 µM; in data set [3], 3.29 µM; in data set [4], 2.32 µM; in data set [5], 2.68 µM; in data set [7], 3.98 µM. Moreover, the 50% inhibitory concentration (IC50) at 72 h in data set [6] worked out at 5.31 µM.

For the molecule `O=C1C(=O)c2ccccc2C2=C1CC(Cn1nnc(-c3ccccc3)c1-c1ccccc1)O2` (configuration not stated), the half-inhibitory concentration (IC50) with Trypanosoma cruzi [1] is over 1000 µM; in data set [2], 1.29 µM; in data set [3], 1.15 µM; in [4] it was 1.43 µM; in data set [5], 1.17 µM; in data set [7], 1.68 µM. The IC50 at 72 h in data set [6] turned out to be 2.16 µM.

As to `CC1(C)OC2=C(C(=O)C(=O)c3ccccc32)[C@H](n2nnc(-c3ccccc3)c2I)[C@H]1Br`, the IC50 in the data set with Trypanosoma cruzi [1] was over 1000 µM; in data set [2], over 8.48 µM; in data set [3] it was over 8.48 µM; in data set [4], over 8.48 µM; in data set [5] it was over 8.48 µM; in data set [7], over 8.48 µM. For the same molecule, the 50% inhibitory concentration (IC50) at 72 h in data set [6] is over 8.48 µM.

`CC1(C)CC(n2nncc2-c2ccccc2)C2=C(O1)C(=O)c1ccccc1C2=O` (configuration not stated): the 50% inhibitory concentration (IC50) with Trypanosoma cruzi [1] was over 1000 µM; in [2], over 13 µM; in data set [3] it was over 13 µM; in data set [4] it was over 13 µM; in data set [5], over 13 µM; in data set [7], over 13 µM. Moreover, the IC50 at 72 h in data set [6] is over 13 µM.

Regarding `CC1(C)OC2=C(C(=O)c3ccccc3C2=O)C1n1nnc(-c2ccccc2)c1I` (configuration not stated), the IC50 is over 1000 µM with Trypanosoma cruzi [1]; 5.73 µM in data set [2]; 4.22 µM in data set [3]; 4.58 µM in [4]; 5.69 µM in [5]; 5.17 µM in [7]. The concentration for half-maximal inhibition (IC50) at 72 h in [6] worked out at 7.86 µM.

As to `CCCCCCc1cn(CC2CC3=C(O2)c2ccccc2C(=O)C3=O)nn1` (configuration not stated), the half-maximal inhibitory concentration (IC50) in the data set with Trypanosoma cruzi [8] worked out at 86.7 µM; in data set [2], 3.42 µM; in [3], 2.02 µM; in [4], 2.7 µM; in data set [5], 1.91 µM; in [7], 2.13 µM. The 50% inhibitory concentration (IC50) at 72 h in data set [6] was found to be 5.99 µM.

In the case of `O=C1C(=O)c2ccccc2C2=C1CC(Cn1cc(-c3ccccc3)nn1)O2` (configuration not stated), the concentration for half-maximal inhibition (IC50) in the data set with Trypanosoma cruzi [1] is over 1000 µM; in data set [2], 2.07 µM; in data set [3], 3.55 µM; in data set [4], 3.24 µM; in data set [5], 3.08 µM; in data set [7], 2.4 µM. Besides, the IC50 at 72 h in [6] stood at 3.24 µM.

`CC1(C)OC2=C(C(=O)C(=O)c3ccccc32)[C@H](n2nncc2-c2ccccc2)[C@H]1Br`: the IC50 in the data set with Trypanosoma cruzi [1] was found to be 125 µM; in data set [2], 0.41 µM; in data set [3], 0.66 µM; in data set [4] it was 1.59 µM; in data set [5], 0.77 µM; in [7] it was 0.47 µM. Moreover, the “Ratio IC50” value (in the data set on HL-60; in the data set with SF-295; in the data set with HCT-116; in data set [9]; in the data set with PC-3) was 0.8 - 3 each time. Moreover, the concentration for half-maximal inhibition (IC50) at 72 h in data set [6] came to 1.23 µM.

`CC1(C)OC2=C(C(=O)C(=O)c3ccccc32)C1n1nnc(-c2ccccc2)c1I` (configuration not stated): the IC50 is over 1000 µM in the data set with Trypanosoma cruzi [1]; 2.77 µM in data set [2]; 2.59 µM in [3]; 2.83 µM in [4]; 3.05 µM in data set [5]; 3.35 µM in data set [7]. Besides, the half-maximal inhibitory concentration (IC50) at 72 h in data set [6] was determined as 4.08 µM.

In turn, `CC1(C)CCC2=C(O1)c1ccccc1C(=O)C2=O` [LAPACHONE] had an IC50 with Trypanosoma cruzi [1] of 392 µM.
